Laboratory results published in US8785462B2, “5-hydroxypyrimidine-4-carboxamide derivative” (Daiichi Sankyo Company, Limited, priority 2009, dated 2014).

What follows are molecules tested on human liver cancer-derived cell line Hep3B (assay: In vitro erythropoietin (EPO) induction activity in Hep3B cells (human EPO ELISA of culture supernatant)). Conditions: test compound 12.5 μM, Hep3B cells cultured 24 hours at 37° C., multiple of the EPO concentration in the control (0.5% DMSO = 1).
Format: cell-based
Protocol: In vitro erythropoietin (EPO) induction activity of test compounds was evaluated using human liver cancer-derived cell line Hep3B (ATCC, Manassas, Va.). Hep3B cells were cultured overnight at 37° C. in Dulbecco's modified Eagle's medium (DMEM) in the presence of 10% fetal bovine serum (FBS) (24-well plate, 1.0×10^5 cells/well). After replacing with fresh DMEM (+10% FBS) containing a test compound dissolved in 0.5% dimethyl sulfoxide (DMSO) (prepared to a concentration of 12.5 μM) or a solvent control (0.5% DMSO), the cells were cultured for 24 hours at 37° C. After recovering the culture supernatant, EPO concentration in the culture supernatant was quantified using a human EPO ELISA kit (StemCell Technologies).
The EPO concentration in the case of using a compound of each example as a test compound was expressed as a multiple of the EPO concentration in the control.

First: CC[C@@H](O)Cc1ccc(-c2ccc(N3CCC(Cc4nc(C)c(O)c(C(=O)NCC(=O)O)n4)CC3)cc2)cc1 [Example 48, [({5-Hydroxy-2-[(1-{4′-[(2R)-2-hydroxybutyl]biphenyl-4-yl}piperidin-4-yl)methyl]-6-methylpyrimidin-4-yl}carbonyl)amino]acetic acid]
Second: COC[C@H](O)Cc1ccc(-c2ccc(N3CCC(Cc4nc(C)c(O)c(C(=O)NCC(=O)O)n4)CC3)cc2)cc1 [Example 49, [({5-Hydroxy-2-[(1-{4′-[(2R)-2-hydroxy-3-methoxypropyl]biphenyl-4-yl}piperidin-4-yl)methyl]-6-methylpyrimidin-4-yl}carbonyl)amino]acetic acid]
The fold induction at 12.5 µM of the first is higher: 42 for the first, 18 for the second.

`COC[C@@H](O)Cc1ccc(-c2ccc(N3CCC(Cc4nc(C)c(O)c(C(=O)NCC(=O)O)n4)CC3)cc2)cc1` [Example 50, [({5-Hydroxy-2-[(1-{4′-[(2S)-2-hydroxy-3-methoxypropyl]biphenyl-4-yl}piperidin-4-yl)methyl]-6-methylpyrimidin-4-yl}carbonyl)amino]acetic acid] gave a fold induction at 12.5 µM of 23.
